According to patent publication US8314256B2, “Modulators of ATP-binding cassette transporters” (Vertex Pharmaceuticals Incorporated, priority 2005, dated 2012):

Target: T1, ΔF508-CFTR (Homo sapiens, UniProt P13569, DEL508-508)
T1 construct: expressed in transfected cells
Experiment: Membrane potential optical assay of ΔF508-CFTR modulation (Table 3 EC50; the table does not name the assay)
Type: cell-based
Text: Membrane Potential Optical Methods for Assaying ΔF508-CFTR Modulation Properties of Compounds
The optical membrane potential assay utilized voltage-sensitive FRET sensors described by Gonzalez and Tsien (See, Gonzalez, J. E. and R. Y. Tsien (1995) “Voltage sensing by fluorescence resonance energy transfer in single cells” Biophys J 69(4): 1272-80, and Gonzalez, J. E. and R. Y. Tsien (1997) “Improved indicators of cell membrane potential that use fluorescence resonance energy transfer” Chem Biol 4(4): 269-77) in combination with instrumentation for measuring fluorescence changes such as the Voltage/Ion Probe Reader (VIPR) (See, Gonzalez, J. E., K. Oades, et al. (1999) “Cell-based assays and instrumentation for screening ion-channel targets” Drug Discov Today 4(9): 431-439).
These voltage sensitive assays are based on the change in fluorescence resonant energy transfer (FRET) between the membrane-soluble, voltage-sensitive dye, DiSBAC2(3), and a fluorescent phospholipid, CC2-DMPE, which is attached to the outer leaflet of the plasma membrane and acts as a FRET donor. Changes in membrane potential (Vm) cause the negatively charged DiSBAC2(3) to redistribute across the plasma membrane and the amount of energy transfer from CC2-DMPE changes accordingly. The changes in fluorescence emission were monitored using VIPR II, which is an integrated liquid handler and fluorescent detector designed to conduct cell-based screens in 96- or 384-well microtiter plates.
Identification of Correction Compounds
To identify small molecules that correct the trafficking defect associated with ΔF508-CFTR; a single-addition HTS assay format was developed. The cells were incubated in serum-free medium for 16 hrs at 37° C. in the presence or absence (negative control) of test compound. As a positive control, cells plated in 384-well plates were incubated for 16 hrs at 27° C. to “temperature-correct” ΔF508-CFTR. The cells were subsequently rinsed 3× with Krebs Ringers solution and loaded with the voltage-sensitive dyes. To activate ΔF508-CFTR, 10 μM forskolin and the CFTR potentiator, genistein (20 μM), were added along with Cl^−-free medium to each well. The addition of Cl^−-free medium promoted Cl^− efflux in response to ΔF508-CFTR activation and the resulting membrane depolarization was optically monitored using the FRET-based voltage-sensor dyes.
Identification of Potentiator Compounds
To identify potentiators of ΔF508-CFTR, a double-addition HTS assay format was developed. During the first addition, a Cl^−-free medium with or without test compound was added to each well. After 22 sec, a second addition of Cl^−-free medium containing 2-10 μM forskolin was added to activate ΔF508-CFTR. The extracellular Cl^− concentration following both additions was 28 mM, which promoted Cl^− efflux in response to ΔF508-CFTR activation and the resulting membrane depolarization was optically monitored using the FRET-based voltage-sensor dyes. Solutions
NIH3T3 mouse fibroblasts stably expressing ΔF508-CFTR are used for optical measurements of membrane potential. The cells are maintained at 37° C. in 5% CO2 and 90% humidity in Dulbecco's modified Eagle's medium supplemented with 2 mM glutamine, 10% fetal bovine serum, 1×NEAA, […]-ME, 1× pen/strep, and 25 mM HEPES in 175 cm^2 culture flasks. For all optical assays, the cells were seeded at 30,000/well in 384-well matrigel-coated plates and cultured for 2 hrs at 37° C. before culturing at 27° C. for 24 hrs. for the potentiator assay. For the correction assays, the cells are cultured at 27° C. or 37° C. with and without compounds for 16-24 hours

T1 sequence (P13569 with tags, fused parts or gaps DEL508-508): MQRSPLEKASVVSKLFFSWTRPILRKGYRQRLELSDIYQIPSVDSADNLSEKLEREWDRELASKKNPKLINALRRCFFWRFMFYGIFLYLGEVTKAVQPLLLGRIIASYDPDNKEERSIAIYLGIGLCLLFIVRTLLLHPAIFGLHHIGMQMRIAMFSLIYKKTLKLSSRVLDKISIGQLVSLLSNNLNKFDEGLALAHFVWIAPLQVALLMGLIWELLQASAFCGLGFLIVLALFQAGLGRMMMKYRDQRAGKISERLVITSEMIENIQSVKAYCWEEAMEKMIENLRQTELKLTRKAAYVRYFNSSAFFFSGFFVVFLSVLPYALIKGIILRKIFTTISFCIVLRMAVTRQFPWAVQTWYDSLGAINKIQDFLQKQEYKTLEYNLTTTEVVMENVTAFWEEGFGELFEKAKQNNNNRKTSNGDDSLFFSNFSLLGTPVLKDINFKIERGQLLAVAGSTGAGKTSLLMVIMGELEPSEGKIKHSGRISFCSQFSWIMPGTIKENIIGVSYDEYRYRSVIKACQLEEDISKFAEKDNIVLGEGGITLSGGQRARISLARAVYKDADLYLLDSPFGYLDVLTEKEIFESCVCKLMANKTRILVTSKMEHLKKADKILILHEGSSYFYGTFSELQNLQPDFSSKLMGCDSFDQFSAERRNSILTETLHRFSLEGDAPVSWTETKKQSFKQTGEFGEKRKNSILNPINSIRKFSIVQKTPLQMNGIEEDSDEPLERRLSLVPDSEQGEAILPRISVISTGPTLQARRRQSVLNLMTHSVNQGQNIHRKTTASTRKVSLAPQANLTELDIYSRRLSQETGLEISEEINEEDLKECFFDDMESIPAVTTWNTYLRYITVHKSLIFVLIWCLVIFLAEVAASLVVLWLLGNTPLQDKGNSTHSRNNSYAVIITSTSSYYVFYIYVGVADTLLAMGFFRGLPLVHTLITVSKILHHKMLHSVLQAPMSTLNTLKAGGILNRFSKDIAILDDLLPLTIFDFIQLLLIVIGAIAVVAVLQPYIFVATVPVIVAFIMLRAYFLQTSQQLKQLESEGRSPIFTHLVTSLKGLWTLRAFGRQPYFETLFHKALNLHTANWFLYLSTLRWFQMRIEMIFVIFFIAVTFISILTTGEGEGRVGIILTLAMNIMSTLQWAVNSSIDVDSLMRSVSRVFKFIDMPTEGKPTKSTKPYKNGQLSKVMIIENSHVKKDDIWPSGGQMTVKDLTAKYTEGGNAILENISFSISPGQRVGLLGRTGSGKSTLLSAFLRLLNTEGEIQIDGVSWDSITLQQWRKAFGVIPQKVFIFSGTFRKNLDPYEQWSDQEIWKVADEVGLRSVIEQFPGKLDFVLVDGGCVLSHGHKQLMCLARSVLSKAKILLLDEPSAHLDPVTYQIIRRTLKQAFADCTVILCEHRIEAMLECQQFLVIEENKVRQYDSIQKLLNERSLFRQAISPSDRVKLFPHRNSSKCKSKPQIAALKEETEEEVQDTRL

Compared with `Cn1cc(C(=O)C(=O)N(Cc2ccccc2)Cc2ccccc2)c2ccccc21` [Compound 15, N,N-Dibenzyl-2-(1-methyl-1H-indol-3-yl)-2-oxo-acetamide], `O=C(C(=O)N(Cc1ccccc1)Cc1ccccc1)c1c[nH]c2ccccc12` [Compound 5, N,N-Dibenzyl-2-(1H-indol-3-yl)-2-oxo-acetamide] is lower in EC50: 1000 to 5000 nM for the first, under 1000 nM for the second. The second is the more potent here.

First: O=C(NC(CN1CCOCC1)c1ccccc1)C(=O)c1c[nH]c2ccccc12 (centres unmarked) [Compound 4]
Second: O=C(NCc1ccccc1)C(=O)c1c[nH]c2ccccc12 [Compound 6]
The EC50 of the first is higher: over 5000 nM for the first, under 1000 nM for the second. The second is the more potent here.

`O=C(NCCc1ccccc1)C(=O)c1c[nH]c2ccc(Br)cc12` [Compound 16] and `O=C(NCCc1ccccc1)C(=O)c1c[nH]c2ccccc12` [Compound 2, 2-(1H-Indol-3-yl)-2-oxo-N-phenethyl-acetamide] cannot be ordered by EC50: under 1000 nM for the first, under 1000 nM for the second.

`O=C(NC(c1ccccc1)c1ccccc1)C(=O)c1c[nH]c2ccccc12` [Compound 1, N-Benzhydryl-2-(1H-indol-3-yl)-2-oxo-acetamide] and `O=C(NCC(c1ccccc1)c1ccccc1)C(=O)c1c[nH]c2ccccc12` [Compound 18, N-(2,2-Diphenylethyl)-2-(1H-indol-3-yl)-2-oxo-acetamide] cannot be ordered by EC50: under 1000 nM for the first, under 1000 nM for the second.

First: O=C(NC(CSCc1ccccc1)CSCc1ccccc1)C(=O)c1c[nH]c2ccccc12 [Compound 17]
Second: Cn1cc(C(=O)C(=O)NC(c2ccccc2)c2ccccc2)c2ccccc21 [Compound 12, N-Benzhydryl-2-(1-methyl-1H-indol-3-yl)-2-oxo-acetamide]
The EC50 of the first is lower: 1000 to 5000 nM for the first, over 5000 nM for the second.

`CC(=O)Nc1ccc(OCCCNC(=O)C(=O)c2c[nH]c3ccc(Br)cc23)cc1` [Compound 8] and `COc1ccc(CCNC(=O)C(=O)c2c[nH]c3ccc(Br)cc23)cc1` [Compound 13] fall in the same range of EC50: 1000 to 5000 nM for the first, 1000 to 5000 nM for the second.

First: COc1ccccc1N1CCN(C(=O)C(=O)c2c[nH]c3ccc(Br)cc23)CC1 [Compound 7]
Second: CN(Cc1ccccc1)C(=O)C(=O)c1c[nH]c2ccccc12 [Compound 14, N-Benzyl-2-(1H-indol-3-yl)-N-methyl-2-oxo-acetamide]
The EC50 of the first is lower: 1000 to 5000 nM for the first, over 5000 nM for the second. The first is the more potent here.

First: Cc1ccc(Cn2cc(SCCNC(=O)C(=O)c3c[nH]c4ccccc34)c3ccccc32)cc1 [Compound 3]
Second: Cn1cc(C(=O)C(=O)NCCc2ccccc2)c2ccccc21 [Compound 10, 2-(1-Methyl-1H-indol-3-yl)-2-oxo-N-phenethyl-acetamide]
The EC50 of the first is lower: under 1000 nM for the first, over 5000 nM for the second.

With `Cn1cc(C(=O)C(=O)NCc2ccccc2)c2ccccc21` [Compound 9] the EC50 was over 5000 nM.
